Test results taken from US20090270400A1 (priority 2004, published 2009).
Where two headings read alike, the source gives them in different places.

Test system: carrageenin-induced hyperalgesia on a rat's paw
Conditions: in vivo

| Structure (SMILES) | dose starting from which the pain threshold following a mechanical stimulus applied to the rats' paws is significantly reduced (iv) [mg/kg] | dose starting from which the pain threshold following a mechanical stimulus applied to the rats' paws is significantly reduced (ip) [mg/kg] |
| --- | --- | --- |
| N[C@@H](CSSC[C@H](N)C(=O)N1CCn2cc(-c3ccccc3)nc2[C@@H]1CC1CCCCC1)C(=O)N1CCn2cc(-c3ccccc3)nc2[C@@H]1CC1CCCCC1 [compound 1, (1R)-1-[({(2R)-2-amino-3-[(8S)-8-(cyclohexylmethyl)-2-phenyl-5,6-dihydroimidazo [1,2-α]pyrazin-7(8H)-yl]-3-oxopropyl}dithio)methyl]-2-[(8S)-8-(cyclohexylmethyl)-2-phenyl-5,6-dihydroimidazo [1,2-α]pyrazin-7(8H)-yl]-2-oxoethylamine] | ≥ 1 | – |
| CN1CC[C@]23c4c5ccc(O)c4O[C@H]2[C@@H](O)C=C[C@H]3[C@H]1C5 [morphine] | – | ≥ 1 |
